Laboratory results: patent US8314117B2, “CGRP receptor antagonists” (Bristol-Myers Squibb Company, priority 2009, dated 2012)
pIC50: −log10 of the molar value.

Molecular target: T1, Human CGRP Receptor (Homo sapiens, UniProt O60894+Q16602)
T1 construct: Crude membranes were prepared from SK-N-MC cells expressing CGRP receptors; endogenous in cells; host or cells: SK-N-MC cells (crude membranes)
Experiment: Radioligand binding assay, [125I]-CGRP displacement from SK-N-MC cell membranes
Details: SK-N-MC membranes (7 μg/well); [125I]-CGRP final 18 pM; room temperature 2 h; at least two separate experiments
Description: Tissue Culture. SK-N-MC cells were grown at 37° C. in 5% CO2 as a monolayer in medium consisting of MEM with Earle's salts and L-glutamine (Invitrogen) supplemented with 10% fetal bovine serum (Invitrogen). Membrane Preparation. Crude membranes were prepared from SK-N-MC cells expressing CGRP receptors. The cells were rinsed twice with phosphate-buffered saline (155 mM NaCl, 3.3 mM Na2HPO4, 1.1 mM […]4, pH 7.4), and incubated for 5-10 min. at 4° C. in hypotonic lysis buffer consisting of 10 mM Tris (pH 7.4) and 5 mM EDTA. […] Homogenates were centrifuged at 32,000×g for 30 min. The pellets were resuspended in cold hypotonic lysis buffer with 0.1% mammalian protease inhibitor cocktail (Sigma) and assayed for protein concentration. The SK-N-MC homogenate was aliquoted and stored at -80° C. Radioligand Binding Assay. The compounds of invention were solubilized and carried through serial dilutions using 100% DMSO. […] [^125I]-CGRP (GE Healthcare or Perkin-Elmer) was diluted to […] in assay buffer and a volume of 50 μl was added to each well. SK-N-MC membranes were thawed, diluted in assay buffer with fresh 0.1% mammalian protease inhibitor cocktail (Sigma), and re-homogenized. SK-N-MC homogenate (7 μg/well) was added in a volume of 100 μl. The assay plates were then incubated at room temperature for 2 h. […] Protein bound radioactivity was determined using a gamma or scintillation counter. […] Final assay concentration of [^125I]-CGRP was 18 pM. […] All compounds of invention were evaluated in at least two separate experiments.

T1 sequence (Q16602 23-461): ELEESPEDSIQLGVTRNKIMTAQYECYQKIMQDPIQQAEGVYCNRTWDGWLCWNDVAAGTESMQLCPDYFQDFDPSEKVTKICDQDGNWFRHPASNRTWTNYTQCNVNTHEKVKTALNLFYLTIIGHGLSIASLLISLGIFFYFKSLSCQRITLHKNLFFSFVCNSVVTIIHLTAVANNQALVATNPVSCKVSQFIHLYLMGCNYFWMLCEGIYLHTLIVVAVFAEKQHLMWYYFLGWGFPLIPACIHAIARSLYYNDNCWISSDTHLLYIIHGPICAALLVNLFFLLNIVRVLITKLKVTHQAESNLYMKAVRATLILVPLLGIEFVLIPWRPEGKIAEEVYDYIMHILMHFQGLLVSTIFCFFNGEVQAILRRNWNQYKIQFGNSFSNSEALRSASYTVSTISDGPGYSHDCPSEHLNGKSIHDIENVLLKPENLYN
T1 sequence (O60894 27-148): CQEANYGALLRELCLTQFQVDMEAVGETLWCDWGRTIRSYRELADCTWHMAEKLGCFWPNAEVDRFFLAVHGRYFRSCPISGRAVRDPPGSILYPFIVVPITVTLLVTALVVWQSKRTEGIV

SMILES | pIC50
O=C(O[C@@H]1CC[C@@](O)(c2cccc(F)c2F)C(=O)c2cccnc21)N1CCC(n2c(=O)[nH]c3ncccc32)CC1 (single isomer, unassigned) [Example 1] | 6.39
O=C(O[C@@H]1CC[C@@](O)(c2cccc(F)c2F)[C@@H](O)c2cccnc21)N1CCC(n2c(=O)[nH]c3ncccc32)CC1 (single isomer, unassigned) [Example 3] | 6.30
N[C@@H]1c2cccnc2[C@H](OC(=O)N2CCC(n3c(=O)[nH]c4ncccc43)CC2)CC[C@H]1c1cccc(F)c1F [Example 8, (5S,6S,9R)-5-amino-6-(2,3-difluorophenyl)-6,7,8,9-tetrahydro-5H-cyclohepta[b]pyridin-9-yl 4-(2-oxo-2,3-dihydro-1H-imidazo[4,5-b]pyridin-1-yl)piperidine-1-carboxylate] | 10.40
N[C@@H]1c2cccnc2[C@H](OC(=O)N2CCC(n3c(=O)[nH]c4ncccc43)CC2)CC[C@H]1c1cc(F)cc(F)c1 [Example 10, (5S,6S,9R)-5-amino-6-(3,5-difluorophenyl)-6,7,8,9-tetrahydro-5H-cyclohepta[b]pyridin-9-yl 4-(2-oxo-2,3-dihydro-1H-imidazo[4,5-b]pyridin-1-yl)piperidine-1-carboxylate] | 9.70
O=C(O[C@@H]1CC[C@@H](c2cc(F)cc(F)c2)[C@H](O)c2cccnc21)N1CCC(n2c(=O)[nH]c3ncccc32)CC1 [Example 11, (5S,6S,9R)-6-(3,5-difluorophenyl)-5-hydroxy-6,7,8,9-tetrahydro-5H-cyclohepta[b]pyridin-9-yl 4-(2-oxo-2,3-dihydro-1H-imidazo[4,5-b]pyridin-1-yl)piperidine-1-carboxylate] | 9.05
O=C(O[C@H]1c2ncccc2C[C@H](c2cccc(F)c2F)C[C@H]1O)N1CCC(n2c(=O)[nH]c3ncccc32)CC1 [Example 12, (6S,8R,9S)-6-(2,3-difluorophenyl)-8-hydroxy-6,7,8,9-tetrahydro-5H-cyclohepta[b]pyridin-9-yl 4-(2-oxo-2,3-dihydro-1H-imidazo[4,5-b]pyridin-1-yl)piperidine-1-carboxylate] | 7.92
N[C@@H]1c2cccnc2[C@H](OC(=O)Nc2ccc3c(c2)CC2(C3)C(=O)Nc3ncccc32)CC[C@H]1c1cccc(F)c1F (stereo partly drawn) [Example 17, (5S,6S,9R)-5-amino-6-(2,3-difluorophenyl)-6,7,8,9-tetrahydro-5H-cyclohepta[b]pyridin-9-yl 2′-oxo-1,1′,2′,3-tetrahydrospiro[indene-2,3′-pyrrolo[2,3-b]pyridine]-5-ylcarbamate] | 8.92
N[C@@H]1c2cccnc2[C@H](NC(=O)N2CCC(n3c(=O)[nH]c4ncccc43)CC2)CC[C@H]1c1cccc(F)c1F [Example 18] | 9.10
N[C@@H]1c2cccnc2[C@@H](CC(=O)N2CCC(n3c(=O)[nH]c4ncccc43)CC2)CC[C@H]1c1cccc(F)c1F [Example 21, 1-(1-(2-((5S,6S,9R)-5-amino-6-(2,3-difluorophenyl)-6,7,8,9-tetrahydro-5H-cyclohepta[b]pyridin-9-yl)acetyl)piperidin-4-yl)-1H-imidazo[4,5-b]pyridin-2(3H)-one] | < 6.00

Continued, values first:

pIC50 | SMILES
7.55 | O=C1c2cccnc2[C@H](OC(=O)N2CCC(n3c(=O)[nH]c4ncccc43)CC2)CCC1c1cccc(F)c1F (mixture of isomers) [Example 2, (9R)-6-(2,3-difluorophenyl)-5-oxo-6,7,8,9-tetrahydro-5H-cyclohepta[b]pyridin-9-yl 4-(2-oxo-2,3-dihydro-1H-imidazo[4,5-b]pyridin-1-yl)piperidine-1-carboxylate]
8.89 | O=C(O[C@@H]1CCC(c2cccc(F)c2F)C(O)c2cccnc21)N1CCC(n2c(=O)[nH]c3ncccc32)CC1 (single isomer, unassigned) [Example 5]
9.80 | O=C(O[C@@H]1CC[C@@H](c2cccc(F)c2F)[C@H](O)c2cccnc21)N1CCC(n2c(=O)[nH]c3ncccc32)CC1 [Example 4, (5S,6S,9R)-6-(2,3-difluorophenyl)-5-hydroxy-6,7,8,9-tetrahydro-5H-cyclohepta[b]pyridin-9-yl 4-(2-oxo-2,3-dihydro-1H-imidazo[4,5-b]pyridin-1-yl)piperidine-1-carboxylate]
8.07 | O=C(O[C@@H]1CC[C@H](c2cccc(F)c2F)[C@H](O)c2cccnc21)N1CCC(n2c(=O)[nH]c3ncccc32)CC1 [Example 6, (5S,6R,9R)-6-(2,3-difluorophenyl)-5-hydroxy-6,7,8,9-tetrahydro-5H-cyclohepta[b]pyridin-9-yl 4-(2-oxo-2,3-dihydro-1H-imidazo[4,5-b]pyridin-1-yl)piperidine-1-carboxylate]
9.89 | [N-]=[N+]=N[C@@H]1c2cccnc2[C@H](OC(=O)N2CCC(n3c(=O)[nH]c4ncccc43)CC2)CC[C@H]1c1cccc(F)c1F [Example 7, (5S,6S,9R)-5-azido-6-(2,3-difluorophenyl)-6,7,8,9-tetrahydro-5H-cyclohepta[b]pyridin-9-yl 4-(2-oxo-2,3-dihydro-1H-imidazo[4,5-b]pyridin-1-yl)piperidine-1-carboxylate]
9.72 | CN[C@@H]1c2cccnc2[C@H](OC(=O)N2CCC(n3c(=O)[nH]c4ncccc43)CC2)CC[C@H]1c1cccc(F)c1F [Example 13, (5S,6S,9R)-6-(2,3-difluorophenyl)-5-(methylamino)-6,7,8,9-tetrahydro-5H-cyclohepta[b]pyridin-9-yl 4-(2-oxo-2,3-dihydro-1H-imidazo[4,5-b]pyridin-1-yl)piperidine-1-carboxylate]
8.70 | CN(C)[C@@H]1c2cccnc2[C@H](OC(=O)N2CCC(n3c(=O)[nH]c4ncccc43)CC2)CC[C@H]1c1cccc(F)c1F [Example 14, (5S,6S,9R)-6-(2,3-difluorophenyl)-5-(dimethylamino)-6,7,8,9-tetrahydro-5H-cyclohepta[b]pyridin-9-yl 4-(2-oxo-2,3-dihydro-1H-imidazo[4,5-b]pyridin-1-yl)piperidine-1-carboxylate]
7.55 | O=C(O[C@@H]1CC[C@@H](c2cccc(F)c2F)/C(=N/O)c2cccnc21)N1CCC(n2c(=O)[nH]c3ncccc32)CC1 [Example 15, (6S,9R,Z)-6-(2,3-difluorophenyl)-5-(hydroxyimino)-6,7,8,9-tetrahydro-5H-cyclohepta[b]pyridin-9-yl 4-(2-oxo-2,3-dihydro-1H-imidazo[4,5-b]pyridin-1-yl)piperidine-1-carboxylate]
7.40 | O=C(O[C@@H]1CC[C@@H](c2cccc(F)c2F)/C(=N\O)c2cccnc21)N1CCC(n2c(=O)[nH]c3ncccc32)CC1 [Example 16, (6S,9R,E)-6-(2,3-difluorophenyl)-5-(hydroxyimino)-6,7,8,9-tetrahydro-5H-cyclohepta[b]pyridin-9-yl 4-(2-oxo-2,3-dihydro-1H-imidazo[4,5-b]pyridin-1-yl)piperidine-1-carboxylate]
